Measured values from patent US7700584B2 (Hangzhou Minsheng Pharmaceuticals Co., Ltd., priority 2004, dated 2010).
Structures can show the parent of a compound that is named as a salt. Where two headings read alike, the source gives them in different places.

Tests used:
[1] = test system: MCF-7 human mammary adenocarcinoma; assay: In vitro inhibition rate to tumor cells (MTT), MCF-7; format: cell-based; settings: Homo sapiens, MCF7, 50 μg/ml, read-out: inhibition rate, Results (%) MCF-7
[2] = test system: SMMC-7721 human hepatic carcinoma; assay: In vitro inhibition rate to tumor cells (MTT), SMMC-7721; format: cell-based; settings: for inhibition at 50 µg/mL: Homo sapiens, SMMC-7721, 50 μg/ml, read-out: inhibition rate, Results (%) SMMC-7721
[3] = target: T1, HIV-1 proteinase (HIV-1 PR) (Human immunodeficiency virus type 1 group M subtype B, UniProt P04585); assay: Screening for in vitro activity against HIV-1 proteinase; format: biochemical
T1 construct: HIV-1 proteinase digests the fluorescent-labeled substrate; purchased
Experimental: Principle of the test: HIV-1 proteinase digests the fluorescent-labeled substrate in an optimal reaction condition and system. The activity of the enzyme can be reflected by the fluorescent intensity in the product of the enzyme reaction. Adding a sample into the reaction system can be used for screening the inhibitor of the enzyme.
1. HIV-1 PR: commercially available, stored at −85° C.
2. Treatment of the samples: Before use, sample was dissolved in DMSO at a suitable concentration, then serially diluted (5×) with double distilled water, five serial dilutions per sample.
3. Positive control: indinavir, purchased from […].
4. Methods: The diluted sample was added into the reaction buffer containing the fluorescent-labeled substrate. Then the genetic engineered target enzyme was added, and incubated in the optimal reaction condition. The fluorescent value was measured with a FLUO star Galaxy luminoscope.

HepG2 cells = assay: Cell status of HepG2 cells treated with sample (HBV screening); format: cell-based; settings: 200 μg/ml, HepG2, four days after infection
[4] = test system: U-937 human histocytic lymphoma; assay: In vitro inhibition rate to tumor cells (MTT), U-937; format: cell-based; settings: for inhibition at 50 µg/mL: Homo sapiens, U-937, 50 μg/ml, read-out: inhibition rate, Results (%) U-937; for inhibition rate, Results (%) U-937: 50 μg/ml
MDCK (dog kidney) cells = assay: Toxicity TC50 of the samples in MDCK cells (influenza screening); settings: concentration of 50% toxicity, given as dilution of the stock solution
[5] = test system: HL-60 human promyelocytic leukemia; assay: In vitro inhibition rate to tumor cells (MTT), HL-60; format: cell-based; settings: for inhibition at 50 µg/mL: Homo sapiens, HL-60, 50 μg/ml, read-out: inhibition rate, Results (%) HL-60; for inhibition rate, Results (%) HL-60: 50 μg/ml
[6] = target: T2, HIV-1 integrase (HIV-1 IN) (Human immunodeficiency virus type 1 group M subtype B, UniProt P04585); assay: Screening for the activity against HIV-1 integrase; format: biochemical
T2 construct: a purified HIV-1 integrase was added into each well; purchased
Experimental: Principle of the test: A synthetic oligonucleotide of 30 nt was used as the donor substrate. A synthetic oligonucleotide of 20 nt was used as the target substrate. A 96-well plate was covered by the donor substrate, and a purified HIV-1 integrase was added into each well. ELISA was performed to measure the product of the target DNA chain transfer. A biotin-labeled alkali phosphatase was used to visual the system. OD value was measured by an Enzyme-linked Detector. Add a sample into the reaction system for screening the inhibitor of the enzyme.
1. HIV-1 IN: commercially available.
2. Treatment of the samples: Before use, the sample was dissolved in water or DMSO at a suitable concentration, then serially diluted (5×), four serial dilutions per sample. The stock solutions of two samples were 100-fold diluted with DMSO, then 5-fold diluted, four serial dilutions per sample. Positive control: S-y, provided by Shanghai Organic Chemistry Institute.
3. The donor substrate and target substrate: synthesized by Shanghai Biological Engineering Company (Shanghai Shenggong).
4. Methods: The diluted sample was added into a 96-well plate covered by the donor substrate, and then added into the reaction buffer containing the genetic engineered target enzyme and biotin-target substrate, incubated in the optimal reaction conditions. A biotin-labeled alkali phosphatase was used to visual the system to determine the absorbance at 450 nm (OD450).

[7] = test system: Hela human cervical carcinoma; assay: In vitro inhibition rate to tumor cells (MTT), Hela; format: cell-based; settings: Homo sapiens, HeLa, 50 μg/ml, read-out: inhibition rate, Results (%) Hela
[8] = test system: A-549 human lung adenocarcinoma; assay: In vitro inhibition rate to tumor cells (MTT), A-549; format: cell-based; settings: for inhibition at 50 µg/mL: Homo sapiens, A549, 50 μg/ml, read-out: inhibition rate, Results (%) A-549
Hepatitis B virus (HBV) = format: cell-based
[9] = test system: Bel-7402 human hepatic carcinoma; assay: In vitro inhibition rate to tumor cells (MTT), Bel-7402; format: cell-based; settings: for inhibition at 50 µg/mL: Homo sapiens, Bel-7402, 50 μg/ml, read-out: inhibition rate, Results (%) Bel-7402; for inhibition rate, Results (%) Bel-7402: 50 μg/ml
[10] = test system: LLC mouse Lewis lung carcinoma; assay: In vitro inhibition rate to tumor cells (MTT), LLC; format: cell-based; settings: 50 μg/ml; for inhibition at 50 µg/mL: Mus musculus, Lewis lung carcinoma
[11] = target: T3, HIV-1 reverse transcriptase (Human immunodeficiency virus type 1 group M subtype B, UniProt P04585); assay: Screening for the in vitro activity against the HIV-1 reverse transcriptase; format: biochemical
T3 construct: purchased
Experimental: Principle of the test: The template to which the HIV-1 reverse transcriptase interacts was covered onto the enzyme-lined template. In the optimal reaction conditions and system, HIV-1 RT will put the substrate comprising Biotin-dUTP onto the reaction template. The activity of the enzyme was measured as the amount of the integrating Biotin-dUTP in the reaction by using streptavidin-labeled horseradish peroxidase. Adding the sample to the reaction system can identify inhibitor of the enzyme.
1. HIV-1 RT: commercially available.
2. Treatment of the samples: Before use, the sample was dissolved in DMSO at a suitable concentration, then serially diluted (5×) with double distilled water, five serial dilutions per sample.
4. Methods: The diluted sample was added into the reaction buffer containing Biotin-dUTP and the genetic engineered target enzyme, and incubated in the optimal reaction conditions. A streptavidin-labeled horseradish peroxidase was added to visual the system, and OD450 was measured.

CC(C)C1CC23OC1(O)C/C(=C\Nc1ccc(O)cc1)C2CCC3C (centres unmarked) (as salt: hydrochloride) [Compound 6, Curcumol p-hydroxy aniline hydrochloride]
melting point: 147.5 to 149.5 °C

CC(C)C1CC23OC1(O)CC(=CN1CCNCC1)C2CCC3C (centres unmarked) (as salt: hydrochloride) [Compound 8, Curcumol piperazine hydrochloride]
melting point: 150 to 152 °C

CC(C)C1CC23OC1(O)C/C(=C\NC(C)(C)C)C2CCC3C (centres unmarked) (as salt: hydrochloride) [Compound 16, Curcumol t-butyl amine hydrochloride]
melting point: 115 to 116 °C

C=C1CC2(OC(=O)CCC)OC3(CC2C(C)C)C(C)CCC13 (centres unmarked) [Compound 2, Curcumol butyrate]
inhibition at 50 µg/mL ([1]; Table 1): 46%
inhibition at 50 µg/mL ([1]; Table 2 (repeated screening)): 41.8%
inhibition at 50 µg/mL ([2]; Table 1): 12.3%
inhibition at 50 µg/mL ([2]; Table 2 (repeated screening)): 14.7%
inhibition at 0.08 µg/mL ([3]; 0.08 μg/ml, read-out: Inhibition rate): 4.13%
inhibition at 0.4 µg/mL ([3]; 0.40 μg/ml, read-out: Inhibition rate): 8.64%
inhibition at 2 µg/mL ([3]; 2.0 μg/ml, read-out: Inhibition rate): 2.98%
inhibition at 10 µg/mL ([3]; 10 μg/ml, read-out: Inhibition rate): 12.2%
IC50 ([3]; IC50, five 5× serial dilutions from 50 μg/ml): > 163 µM
inhibition at 50 µg/mL ([3]; read-out: Inhibition rate, 50 μg/ml): 12.7%
Cell status (HepG2 cells): Normal
inhibition at 50 µg/mL ([4]; Table 1): 71.2%
inhibition at 50 µg/mL ([4]; Table 2 (repeated screening)): 70.3%
TC50 (MDCK (dog kidney) cells): 1/12150 of the stock solution
inhibition at 50 µg/mL ([5]; Table 1): 12.3%
inhibition at 50 µg/mL ([5]; Table 2 (repeated screening)): 18%
IC50 [6]: 116 µM
inhibition at 50 µg/mL ([7]; Table 1): 70.6%
inhibition at 50 µg/mL ([7]; Table 2 (repeated screening)): 75.2%
inhibition at 50 µg/mL ([8]; Table 1): 4.93%
inhibition at 50 µg/mL ([8]; Table 2 (repeated screening)): 9.23%
(Value of the positive control - Measured Value) Value of the positive control × 100% (Hepatitis B virus (HBV); 200 μg/ml, decrease of HBeAg relative to positive control): 68.34%
OD450 of HBeAg (Hepatitis B virus (HBV); 200 μg/ml, supernatant four days after infection, positive control 1.917, negative 0.057): 0.607
activity against HBV (in words) (Hepatitis B virus (HBV); primary screening, HBV e antigen, HepG2, 13 samples): had the activity against HBV
inhibition at 50 µg/mL ([9]; Table 1): 23.3%
inhibition at 50 µg/mL ([9]; Table 2 (repeated screening)): 12.8%
inhibition at 50 µg/mL ([10]; Table 1): 2.98%
inhibition at 50 µg/mL ([10]; Table 2 (repeated screening)): 0.32%
inhibition rate of HIV-1 reverse transcriptase ([11]; 120 ug/ml): 60%
IC50 ([11]; IC50, initial concentration 1/150 of the stock solution): < 392 µM

CC(C)C1CC23OC1(O)C/C(=C\NC(C)(C)C)C2CCC3C (centres unmarked) [Compound 15, Curcumol t-butyl amine]
inhibition at 50 µg/mL ([1]; Table 1): 65.3%
inhibition at 50 µg/mL ([1]; Table 2 (repeated screening)): 60.1%
inhibition rate, Results (%) SMMC-7721 ([2]; 50 μg/ml, Table 2 (repeated screening)): −8.60%
inhibition at 50 µg/mL ([2]; Table 1): -2.5%
melting point: 79 to 80 °C
inhibition rate, Results (%) U-937 ([4]; Table 1): 57.32%
inhibition rate, Results (%) U-937 ([4]; Table 2 (repeated screening)): 50.12%
inhibition rate, Results (%) HL-60 ([5]; Table 1): 8.23%
inhibition rate, Results (%) HL-60 ([5]; Table 2 (repeated screening)): 2.98%
inhibition at 50 µg/mL ([7]; Table 1): 70%
inhibition at 50 µg/mL ([7]; Table 2 (repeated screening)): 71.4%
inhibition rate, Results (%) A-549 ([8]; 50 μg/ml, Table 1): 17.43%
inhibition at 50 µg/mL ([8]; Table 2 (repeated screening)): 12.3%
inhibition rate, Results (%) Bel-7402 ([9]; Table 1): 32.98%
inhibition rate, Results (%) Bel-7402 ([9]; Table 2 (repeated screening)): 31.20%
inhibition rate, Results (%) LLC ([10]; Table 1): −11.83%
inhibition rate, Results (%) LLC ([10]; Table 2 (repeated screening)): −10.12%
